Measurements published in PMC8213057, “Targeting ALK2: An Open Science Approach to Developing Therapeutics for the Treatment of Diffuse Intrinsic Pontine Glioma” (Journal of Medicinal Chemistry, 2020).

How the values were obtained:
[1] = target: T1, ALK2/ACVR1 (Homo sapiens, UniProt Q04771); experiment: biochemical; conditions: Run 1, Run 2; for % enzyme activity: 1 μM; for remaining activity at 1 µM: read-out: % enzyme activity, 1 μM
T1 construct: purchased Reaction Biology Corporation
T1 sequence (Q04771 21-509): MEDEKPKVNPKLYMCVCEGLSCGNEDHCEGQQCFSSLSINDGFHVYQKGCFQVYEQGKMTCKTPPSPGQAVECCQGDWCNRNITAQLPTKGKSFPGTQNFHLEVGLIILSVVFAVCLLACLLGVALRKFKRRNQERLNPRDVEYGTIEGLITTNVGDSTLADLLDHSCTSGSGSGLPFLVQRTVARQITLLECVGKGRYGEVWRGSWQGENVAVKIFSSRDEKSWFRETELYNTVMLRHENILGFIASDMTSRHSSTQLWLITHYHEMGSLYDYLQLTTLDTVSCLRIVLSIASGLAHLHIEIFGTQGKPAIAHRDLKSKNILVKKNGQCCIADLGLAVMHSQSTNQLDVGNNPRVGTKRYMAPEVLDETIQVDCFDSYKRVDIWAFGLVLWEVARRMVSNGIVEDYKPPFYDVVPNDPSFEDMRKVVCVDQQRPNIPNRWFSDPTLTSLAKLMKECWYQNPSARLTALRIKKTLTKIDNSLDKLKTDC

[2] = target: T2, DYRK3 (Homo sapiens, UniProt O43781); conditions: 1 μM; Run 1, Run 2
T2 sequence (O43781 1-588): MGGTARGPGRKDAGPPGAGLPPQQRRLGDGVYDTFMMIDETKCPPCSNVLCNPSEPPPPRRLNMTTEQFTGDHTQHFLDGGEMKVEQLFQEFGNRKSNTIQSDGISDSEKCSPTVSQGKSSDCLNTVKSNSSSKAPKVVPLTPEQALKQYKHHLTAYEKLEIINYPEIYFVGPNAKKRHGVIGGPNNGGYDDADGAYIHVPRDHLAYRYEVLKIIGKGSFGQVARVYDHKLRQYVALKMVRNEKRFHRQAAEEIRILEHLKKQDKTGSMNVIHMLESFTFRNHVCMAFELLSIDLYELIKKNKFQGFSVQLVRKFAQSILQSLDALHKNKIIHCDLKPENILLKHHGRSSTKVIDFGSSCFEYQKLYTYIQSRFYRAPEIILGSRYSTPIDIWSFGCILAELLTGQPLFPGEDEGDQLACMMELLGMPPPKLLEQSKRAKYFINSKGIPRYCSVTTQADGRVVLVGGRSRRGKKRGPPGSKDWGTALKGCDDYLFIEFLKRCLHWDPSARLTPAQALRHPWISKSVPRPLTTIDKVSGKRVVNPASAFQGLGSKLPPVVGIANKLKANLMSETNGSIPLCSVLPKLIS

[3] = target: ERBB4/HER4 (Homo sapiens, UniProt Q15303); conditions: 1 μM; Run 1, Run 2
ERBB4/HER4, sequence (Q15303 26-1308): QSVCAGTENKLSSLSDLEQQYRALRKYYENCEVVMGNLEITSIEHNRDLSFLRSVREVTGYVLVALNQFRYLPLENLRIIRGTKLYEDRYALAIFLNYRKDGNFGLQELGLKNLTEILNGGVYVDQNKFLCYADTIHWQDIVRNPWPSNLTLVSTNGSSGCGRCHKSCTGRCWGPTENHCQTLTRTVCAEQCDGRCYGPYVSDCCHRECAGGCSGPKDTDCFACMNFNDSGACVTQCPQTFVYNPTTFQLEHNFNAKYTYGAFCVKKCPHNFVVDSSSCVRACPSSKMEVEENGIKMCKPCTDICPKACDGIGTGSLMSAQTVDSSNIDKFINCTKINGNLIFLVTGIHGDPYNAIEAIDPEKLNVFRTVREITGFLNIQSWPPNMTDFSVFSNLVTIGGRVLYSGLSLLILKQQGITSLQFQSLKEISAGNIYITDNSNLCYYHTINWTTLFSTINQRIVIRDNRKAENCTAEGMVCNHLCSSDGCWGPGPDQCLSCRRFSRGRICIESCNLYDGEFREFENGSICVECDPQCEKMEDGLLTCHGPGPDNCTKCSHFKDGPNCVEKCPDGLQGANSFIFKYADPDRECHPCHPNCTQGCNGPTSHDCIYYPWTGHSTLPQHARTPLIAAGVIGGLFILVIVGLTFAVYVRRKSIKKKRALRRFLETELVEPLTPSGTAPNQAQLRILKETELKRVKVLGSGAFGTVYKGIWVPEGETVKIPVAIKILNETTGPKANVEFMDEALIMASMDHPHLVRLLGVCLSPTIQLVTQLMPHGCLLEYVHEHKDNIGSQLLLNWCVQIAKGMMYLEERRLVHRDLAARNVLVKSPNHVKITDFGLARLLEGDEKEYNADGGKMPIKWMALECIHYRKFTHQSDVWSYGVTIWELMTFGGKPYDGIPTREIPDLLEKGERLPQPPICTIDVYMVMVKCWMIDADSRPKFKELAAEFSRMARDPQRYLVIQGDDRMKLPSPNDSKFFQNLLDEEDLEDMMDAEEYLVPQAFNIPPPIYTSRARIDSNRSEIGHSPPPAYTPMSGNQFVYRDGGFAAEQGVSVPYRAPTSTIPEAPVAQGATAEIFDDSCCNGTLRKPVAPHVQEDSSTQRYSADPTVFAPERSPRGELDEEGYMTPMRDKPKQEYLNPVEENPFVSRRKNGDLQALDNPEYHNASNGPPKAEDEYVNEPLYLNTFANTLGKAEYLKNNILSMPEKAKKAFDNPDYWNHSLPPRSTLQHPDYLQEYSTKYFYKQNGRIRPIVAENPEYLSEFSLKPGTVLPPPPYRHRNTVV

[4] = target: T3, GRK7 (Homo sapiens, UniProt Q8WTQ7); conditions: 1 μM; Run 1, Run 2
T3 sequence (Q8WTQ7 1-553): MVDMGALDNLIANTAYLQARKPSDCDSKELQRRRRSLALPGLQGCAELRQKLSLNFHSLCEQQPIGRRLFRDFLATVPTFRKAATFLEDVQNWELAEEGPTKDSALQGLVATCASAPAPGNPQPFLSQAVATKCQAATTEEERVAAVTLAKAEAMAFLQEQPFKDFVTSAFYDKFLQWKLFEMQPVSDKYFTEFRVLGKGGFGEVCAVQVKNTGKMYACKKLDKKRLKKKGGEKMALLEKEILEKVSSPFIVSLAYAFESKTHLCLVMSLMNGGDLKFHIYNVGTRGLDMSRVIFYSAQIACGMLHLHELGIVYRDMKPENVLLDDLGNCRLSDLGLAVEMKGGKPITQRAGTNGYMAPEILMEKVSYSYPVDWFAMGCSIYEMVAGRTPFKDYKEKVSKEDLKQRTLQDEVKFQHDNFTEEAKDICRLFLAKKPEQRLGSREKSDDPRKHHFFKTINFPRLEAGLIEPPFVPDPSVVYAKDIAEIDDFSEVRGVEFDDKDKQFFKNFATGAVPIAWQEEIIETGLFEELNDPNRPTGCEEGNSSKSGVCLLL

[5] = target: IR (Homo sapiens, UniProt P06213); conditions: 1 μM; Run 1, Run 2
[6] = target: JAK1 (Homo sapiens, UniProt P23458); conditions: 1 μM; Run 1, Run 2
JAK1, sequence (P23458 whole entry): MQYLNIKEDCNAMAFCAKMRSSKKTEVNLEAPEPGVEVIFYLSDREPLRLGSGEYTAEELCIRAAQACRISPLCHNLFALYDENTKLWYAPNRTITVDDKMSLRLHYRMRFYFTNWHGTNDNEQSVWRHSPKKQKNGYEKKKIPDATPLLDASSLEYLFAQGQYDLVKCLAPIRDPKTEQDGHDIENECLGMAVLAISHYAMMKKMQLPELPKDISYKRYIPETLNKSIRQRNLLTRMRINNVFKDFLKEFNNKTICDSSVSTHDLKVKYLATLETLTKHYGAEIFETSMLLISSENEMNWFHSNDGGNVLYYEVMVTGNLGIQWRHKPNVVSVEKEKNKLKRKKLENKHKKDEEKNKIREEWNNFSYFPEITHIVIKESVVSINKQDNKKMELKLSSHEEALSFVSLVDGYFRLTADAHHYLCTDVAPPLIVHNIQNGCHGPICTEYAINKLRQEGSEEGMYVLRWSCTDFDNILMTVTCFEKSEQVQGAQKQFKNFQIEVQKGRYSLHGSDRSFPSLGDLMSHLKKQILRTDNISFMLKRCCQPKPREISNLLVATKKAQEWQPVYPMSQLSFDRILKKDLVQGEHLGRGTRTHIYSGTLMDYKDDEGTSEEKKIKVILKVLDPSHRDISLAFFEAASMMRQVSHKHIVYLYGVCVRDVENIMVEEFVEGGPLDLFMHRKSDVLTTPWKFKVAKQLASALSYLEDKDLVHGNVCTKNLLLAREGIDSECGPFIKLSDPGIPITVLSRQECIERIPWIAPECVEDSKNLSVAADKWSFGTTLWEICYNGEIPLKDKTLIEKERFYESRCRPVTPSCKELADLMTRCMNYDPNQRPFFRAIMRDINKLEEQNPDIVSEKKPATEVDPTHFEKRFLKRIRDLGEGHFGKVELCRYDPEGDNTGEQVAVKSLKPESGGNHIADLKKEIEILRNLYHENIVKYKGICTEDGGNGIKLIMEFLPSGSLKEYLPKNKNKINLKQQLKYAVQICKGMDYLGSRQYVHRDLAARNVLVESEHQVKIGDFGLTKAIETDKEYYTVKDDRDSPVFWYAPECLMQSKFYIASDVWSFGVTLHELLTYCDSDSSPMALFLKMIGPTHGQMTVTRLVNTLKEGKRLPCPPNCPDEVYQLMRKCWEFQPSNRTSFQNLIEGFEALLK

[7] = target: SBK1 (Homo sapiens, UniProt Q52WX2); conditions: 1 μM; Run 1, Run 2
SBK1, sequence (Q52WX2 whole entry): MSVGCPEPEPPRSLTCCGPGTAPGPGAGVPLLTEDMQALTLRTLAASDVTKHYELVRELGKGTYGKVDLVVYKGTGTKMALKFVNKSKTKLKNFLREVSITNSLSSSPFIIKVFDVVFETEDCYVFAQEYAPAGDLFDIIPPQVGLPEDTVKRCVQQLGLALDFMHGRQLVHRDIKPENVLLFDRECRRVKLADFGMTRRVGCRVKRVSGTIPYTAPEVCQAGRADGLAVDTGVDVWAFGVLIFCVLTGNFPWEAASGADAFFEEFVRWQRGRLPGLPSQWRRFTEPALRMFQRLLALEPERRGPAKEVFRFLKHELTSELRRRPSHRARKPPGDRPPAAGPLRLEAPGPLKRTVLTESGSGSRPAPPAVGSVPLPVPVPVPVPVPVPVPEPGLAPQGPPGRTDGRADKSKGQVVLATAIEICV

[8] = target: T4, TSSK3/STK22C (Homo sapiens, UniProt Q96PN8); conditions: 1 μM; Run 1, Run 2
T4 sequence (Q96PN8 1-268): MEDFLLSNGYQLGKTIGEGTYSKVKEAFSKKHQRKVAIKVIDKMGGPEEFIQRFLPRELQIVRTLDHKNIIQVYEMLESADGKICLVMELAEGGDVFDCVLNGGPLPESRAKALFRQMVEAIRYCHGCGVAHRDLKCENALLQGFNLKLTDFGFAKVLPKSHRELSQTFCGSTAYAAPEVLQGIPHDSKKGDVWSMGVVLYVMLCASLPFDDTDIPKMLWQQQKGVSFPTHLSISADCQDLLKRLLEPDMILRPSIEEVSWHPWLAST

[9] = target: ERBB2/HER2 (Homo sapiens, UniProt P04626); experiment: biochemical; conditions: read-out: % enzyme activity, 1 μM; Run 1, Run 2
ERBB2/HER2, sequence (P04626 23-1255): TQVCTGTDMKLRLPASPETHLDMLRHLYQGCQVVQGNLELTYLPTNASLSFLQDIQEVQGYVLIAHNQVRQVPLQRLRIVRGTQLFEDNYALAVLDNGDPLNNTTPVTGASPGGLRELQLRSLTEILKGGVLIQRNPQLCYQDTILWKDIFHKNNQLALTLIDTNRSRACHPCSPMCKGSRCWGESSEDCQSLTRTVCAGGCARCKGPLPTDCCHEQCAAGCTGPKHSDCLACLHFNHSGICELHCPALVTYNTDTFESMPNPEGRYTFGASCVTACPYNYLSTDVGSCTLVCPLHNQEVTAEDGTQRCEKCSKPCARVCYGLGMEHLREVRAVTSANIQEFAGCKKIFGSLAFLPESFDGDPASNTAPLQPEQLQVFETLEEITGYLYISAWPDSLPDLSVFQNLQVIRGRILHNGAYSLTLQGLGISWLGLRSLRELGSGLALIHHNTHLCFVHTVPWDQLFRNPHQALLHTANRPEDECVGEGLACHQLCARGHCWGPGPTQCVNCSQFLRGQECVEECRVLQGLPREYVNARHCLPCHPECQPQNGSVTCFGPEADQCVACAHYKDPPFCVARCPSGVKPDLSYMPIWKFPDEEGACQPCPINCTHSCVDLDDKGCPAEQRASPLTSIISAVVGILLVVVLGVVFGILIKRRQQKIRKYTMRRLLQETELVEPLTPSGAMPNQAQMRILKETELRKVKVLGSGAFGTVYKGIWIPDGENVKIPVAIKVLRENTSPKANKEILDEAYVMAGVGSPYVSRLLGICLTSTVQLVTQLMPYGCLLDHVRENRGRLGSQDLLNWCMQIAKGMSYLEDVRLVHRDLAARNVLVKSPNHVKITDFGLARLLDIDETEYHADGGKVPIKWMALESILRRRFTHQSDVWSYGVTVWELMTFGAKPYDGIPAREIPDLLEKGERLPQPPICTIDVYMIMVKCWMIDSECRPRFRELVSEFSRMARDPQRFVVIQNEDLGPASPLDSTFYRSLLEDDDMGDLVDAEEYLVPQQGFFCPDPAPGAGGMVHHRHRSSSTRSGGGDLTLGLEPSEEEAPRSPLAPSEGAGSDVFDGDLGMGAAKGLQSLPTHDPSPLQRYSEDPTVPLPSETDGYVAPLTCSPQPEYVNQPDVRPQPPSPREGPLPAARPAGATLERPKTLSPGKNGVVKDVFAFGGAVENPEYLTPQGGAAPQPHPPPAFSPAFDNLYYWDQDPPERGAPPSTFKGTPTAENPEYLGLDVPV

Row | Structure (SMILES) | % enzyme activity [1] [%] | remaining activity at 1 µM [1] [%] | % enzyme activity [2] [%] | % enzyme activity [3] [%] | % enzyme activity [4] [%] | % enzyme activity [5] [%] | % enzyme activity [6] [%] | % enzyme activity [7] [%] | % enzyme activity [8] [%] | remaining activity at 1 µM [9] [%]
1 | COc1cc(-c2cncc(-c3ccc(N4CCN(C)CC4)cc3)c2C)cc(F)c1C(N)=O [Compound 26a, 2-Fluoro-6-methoxy-4-(4-methyl-5-(4-(4-methylpiperazin-1-yl)phenyl)pyridin-3-yl)benzamide] | 8.63 | 9.92 | 88.30 | 99.40 | 93.81 | 100.44 | 99.53 | 93.74 | 96.02 | 89.7
2 | COc1cc(-c2cncc(-c3ccc(N4C[C@@H](C)N(C)[C@@H](C)C4)cc3)c2C)cc(F)c1C(N)=O [Compound 26c, 2-Fluoro-6-methoxy-4-(4-methyl-5-(4-((3R,5S)-3,4,5-trimethylpiperazin-1-yl)phenyl)pyridin-3-yl)benzamide] | 11.70 | 13.7 | 96.01 | 93.88 | 91.35 | 97.15 | 99.07 | 101.08 | 95.64 | 96.8
